Experimental findings from article PMC12064818, “A general assay platform to study protein pharmacology using ligand-dependent structural dynamics” (Nature Communications, 2025) are described below.

In experiment [1] the test system is E. coli Lig-C-HiBiT (DNA ligase). The experiment can be described thus: SDR assay (aqueous ligand dispense), E. coli Lig-C-HiBiT. As to conditions: for SDR assay data: 1 nM E. coli Lig-C-HiBiT; for SDR assay data / SDR response: Log [ATP]; for SDR response: replicates. (HiBiT is a short tag that completes a luciferase, so light tracks the accessible tagged protein.)

For experiment [2], the target named is C. elegans iPGM-C-HiBiT (Caenorhabditis elegans, UniProt G5EFZ1). Description: iPGM coupled-enzyme assay, C. elegans iPGM-C-HiBiT. Type of experiment: biochemical. The arrangement: cDNA, containing Phe2-Ile539 and the 6xHis tag; His6 (C); made in house; host or cells: E. coli. As to conditions: C. elegans iPGM-C-HiBiT Std 5 nM; ligand […] Std. How it is done:
The enzyme activity of C. elegans or B. malayi iPGM-C-HiBiT was measured using the functional coupled-enzyme luminescence end-point output assay for iPGM as previously described[16],[41],[68]. Briefly, the indicated concentration of 4 μL of iPGM-C-HiBiT was dispensed into 1536-well white, high solid base, medium bind plates in a pH 8.0 iPGM assay buffer (30 mM Tris-HCl, 5 mM magnesium sulfate, 20 mM potassium chloride and 0.08% BSA) with the BioRaptr 2. Compounds and controls were added to each plate with a pintool as described in Supplementary Data 8. Enzymes were incubated with peptide for > 20 min at ambient temperature, protected from light. […] Enzyme was at 5 nM final concentration for the standard assay with an estimated KM 3-phosphoglycerate (3PG) substrate concentration of 400 μM. Plates were incubated at ambient temperature for 10 min, protected from light, then measured by a ViewLux plate reader. […] See Supplementary Table 6 for additional details.
Supplementary Table 6. Protocol for Co- factor independent phosphoglycerate mutase (iPGM) coupled-enzyme assay
Supplementary Table 6: Protocol for Co-factor independent phosphoglycerate m utase (iPGM) coupled- enzym e assay […]
No enzym e control (colum n 1) and enzym e solutions (5 nM Bm iPGM-C-HiBiT or Ce iPGM-1 Reagent 4 µLC-HiBiT dialyzed against Zn/Mn final assay concentration) in PGM enzym e buffer; white/solid bottom , m edium bind, high base plates (Greiner), dispensed with BioRaptr 2 […]
in 8-pt 1:6 titration series in duplicate); com pounds transferred to respective colum ns with […]
Test com pounds: m acrocyclic peptides at 5 m M stock concentration in 16-pt, 1:3 titration […]
transferred to respective colum ns with Pintool
3 Incubation 20 m inIncubate enzym e + com pounds at am bient tem p for 20 m in, protected from light 4 Reagent 2 µLSubstrate solution; 0.4 m M final concentration 3PG in coupled-enzym e substrate buffer; dispensed with BioRaptr 2
5 Incubation 5 m inAm bient tem perature, protected from light
6 Reagent 4 µLKinase-Glo Plus reagent (Prom ega) prepared according to m anufacturer’s protocol;
7 Incubation 10 m inRoom tem perature, protected from light
8 Detector ViewLuxRead plate lum inescence (Exposure = 1 sec; Gain = Medium; Speed = Slow; Binning = 2X) […]
in 20% glycerol); Bm iPGM-C-HiBiT enzym e 10 µM stock solution in 20% glycerol.
Coupled-enzym e substrate solution: 30 m M Tris-HCl, pH 8.0; 5 m M MgSO4; 20 m M KCl; 9 m M ADP (3 m M final); 0.1 4 units/µl enolase (Millipore Sigm a, Cat# E6126); 0.15 units/µl pyruvate kinase (from rabbit m uscle, Millipore Sigm a, Cat #

The target in experiment [3] is T1, FLuc-C-HiBiT (Photinus pyralis, UniProt P08659).
T1 construct: firefly luciferase with C-terminal HiBiT tag, E. coli expressed
T1 sequence (P08659 whole entry, looked up): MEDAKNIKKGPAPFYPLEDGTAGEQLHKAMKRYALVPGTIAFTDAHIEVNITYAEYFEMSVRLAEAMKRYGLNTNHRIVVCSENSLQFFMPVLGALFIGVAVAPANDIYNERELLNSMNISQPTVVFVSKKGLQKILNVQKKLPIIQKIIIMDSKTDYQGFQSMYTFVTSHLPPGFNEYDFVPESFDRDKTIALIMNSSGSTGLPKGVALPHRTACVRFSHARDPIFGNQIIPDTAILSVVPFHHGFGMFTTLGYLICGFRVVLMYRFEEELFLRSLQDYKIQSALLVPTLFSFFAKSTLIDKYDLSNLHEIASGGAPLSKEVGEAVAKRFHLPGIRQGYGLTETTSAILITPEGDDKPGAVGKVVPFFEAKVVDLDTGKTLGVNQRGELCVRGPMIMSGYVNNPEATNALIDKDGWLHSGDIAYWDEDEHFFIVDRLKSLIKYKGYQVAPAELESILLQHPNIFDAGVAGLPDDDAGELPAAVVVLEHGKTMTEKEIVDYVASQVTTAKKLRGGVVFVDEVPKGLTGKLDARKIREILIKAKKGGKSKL
The experiment can be described thus: biochemical. The note with it: enzyme activity, 10 uM ATP; read-out: IC50 or SDR50 (mM) / FLuc E.

Setting [4] is: E. coli Lig-C-HiBiT (1.0 nM), ligand 100 µM.

“And” between values parts separate entries of the source, which are not always exact repeats. Equal entries are not always repeated.

C. elegans iPGM-C-HiBiT, sequence (G5EFZ1 2-539): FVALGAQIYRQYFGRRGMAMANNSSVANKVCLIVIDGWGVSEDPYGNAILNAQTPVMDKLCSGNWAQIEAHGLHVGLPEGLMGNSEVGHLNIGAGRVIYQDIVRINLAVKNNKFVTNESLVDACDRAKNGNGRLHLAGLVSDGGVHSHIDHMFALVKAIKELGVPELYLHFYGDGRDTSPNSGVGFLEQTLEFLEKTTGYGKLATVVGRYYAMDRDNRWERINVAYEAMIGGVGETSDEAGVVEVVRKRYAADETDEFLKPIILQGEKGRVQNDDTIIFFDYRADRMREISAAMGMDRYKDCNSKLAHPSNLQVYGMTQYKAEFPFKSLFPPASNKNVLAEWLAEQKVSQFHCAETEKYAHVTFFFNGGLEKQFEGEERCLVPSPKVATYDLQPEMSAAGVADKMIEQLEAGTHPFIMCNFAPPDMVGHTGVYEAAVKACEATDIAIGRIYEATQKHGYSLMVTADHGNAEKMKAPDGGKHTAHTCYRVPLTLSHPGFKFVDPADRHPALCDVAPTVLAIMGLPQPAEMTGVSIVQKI

In the case of `Nc1ncnc2c1ncn2[C@@H]1O[C@H](COP(=O)(O)OP(=O)(O)OP(=O)(O)O)[C@@H](O)[C@H]1O` [ATP], the SDR assay data in experiment [1] (M -3.15) was 6.4 and 7.5 and 12.8; in experiment [1] (M -3.75), 7.0 and 9.1; in experiment [1] (M -4.05), 6.9 and 5.8 and 9.6; in experiment [1] (M -6.76) it was 5.3 and 6.4 and 8.6. The “SDR assay statistics Ave RLU” value in experiment [1] (setting [4]) is given as 2214.0 RLU. Moreover, in experiment [1] (setting [4]), the “SDR assay statistics S:B” value turned out to be 1.1. The max resp in experiment [1] (E. coli Lig-C-HiBiT, maximum response) came out at 7.8. In addition, the SDR response in experiment [1] (M -2.85) is 4.8 and 10.7; in experiment [1] (M -3.15) it was 6.4 and 12.8; in experiment [1] (M -3.45) it was 4.5 and 9.6; in experiment [1] (M -3.75), 7.0 and 9.1; in experiment [1] (M -4.05), 6.9 and 5.8 and 9.6; in experiment [1] (M -4.35), 9.4 and 4.6 and 6.2. In addition, the SDR response is 10.2 and 2.5 in experiment [1] (M -4.65); 10.5 and 2.6 in experiment [1] (M -4.95); 4.4 and 2.6 and 13.4 in experiment [1] (M -5.25); 1.7 and 7.1 in experiment [1] (M -5.55); 5.9 in experiment [1] (M -5.86); 9.8 and 1.1 and 5.3 in experiment [1] (M -6.16). Besides, the SDR response was 6.3 and 0.236 and 4.6 in experiment [1] (M -6.46); 5.3 and 6.4 in experiment [1] (M -6.76).

On to `CC(C)C[C@H](NC(=O)[C@H](Cc1ccc(O)cc1)NC(=O)[C@@H]1CSCC(=O)N[C@H](Cc2ccc(O)cc2)C(=O)N[C@@H](CC(=O)O)C(=O)N[C@@H](Cc2ccc(O)cc2)C(=O)N2CCC[C@H]2C(=O)NCC(=O)N[C@@H](CC(=O)O)C(=O)N[C@@H](Cc2ccc(O)cc2)C(=O)N1)C(=O)N[C@@H](Cc1ccc(O)cc1)C(=O)NCC(=O)N[C@H](C(=O)N[C@@H](CS)C(=O)NCC(N)=O)[C@@H](C)O` [Ce-2], for which, in experiment [2], the “Standard assay statistics Ave RLU” value is 3361.1 RLU, the “Standard assay statistics S:B” value was 8.4, the “Standard assay statistics S:N” value is on record as -16.5 and the “Standard assay statistics Z’” value came to 0.816.

In the case of `CC(CNC(=O)C1CCN(C(=O)c2ncn3c2COC(c2ccccc2)C3)CC1)c1ccccc1` (centres unmarked) [compound 00449795], the IC50 in experiment [3] was found to be 0.00248 mM.
